{
  "source": "patent US20250281497A1",
  "about": "“FUSED AMINO PYRIMIDINE COMPOUNDS FOR TREATMENT OF SEIZURE DISORDERS” (Ovid Therapeutics Inc., priority 2024, published 2025)",
  "key": {"[1]": {"design": "species or system mice", "conditions": "in vivo"}, "[2]": {"system": "hippocampal neurons", "assay": "Gramicidin perforated patch clamp, EGABA in hippocampal neurons", "assay_type": "cell-based, Sprague Dawley", "conditions": "300 nM", "experimental": "Neuronal Cultures. Hippocampal neurons were prepared from Sprague Dawley E18 embryos and plated at 450,000 per dish and maintained at 37° C. in a humidified 5% CO2 incubator for 10-25 days before experimentation (Lee et al., Nat. Neurosci. 14, 736-743 (2011)).\nAt this developmental stage, GABAAR receptor activation leads to hyperpolarization, a phenomenon critically dependent upon KCC2 (Kontou et al., J Biol Chem, 100364 (2021)).\nNeuronal Patch clamp assays. Neuronal cell culture recordings were performed in bath saline at 34° C. For gramicidin perforated-patch experiments, pipettes contained (in mM): 140 KCl and 10 HEPES, pH 7.4 KOH. For whole-cell experiments, pipettes contained (in mM): 115 K-meth-SO^4, 30 KCl, 2 Mg-ATP, 4 Na-ATP, 0.4 Na-GTP, and 10 HEPES, pH 7.4 KOH. Bath saline contained the following (in mM): 140 NaCl, 2.5 KCl, 2.5 CaCl2, 2.5 MgCl2, 10 HEPES, and 11 glucose, pH 7.4 NaOH (Kontou et at, 2021, supra). All compound solutions were applied to cells using a three-barreled 700 μm pipe positioned just above the cell (Warner Instruments). […] All voltages from whole-cell experiments were corrected offline using a calculated liquid junction potential value (13.6 mV) in Clampex (Molecular Devices). For gramicidin perforated-patch experiments, intracellular Cl^− values were back-calculated using measured EGABA values and the Nernst equation: […]"}, "[3]": {"target": "T1, KCC4 (Homo sapiens, UniProt Q9Y666)", "T1 construct": "expressed in transfected cells; host or cells: HEK-293", "T1 sequence (Q9Y666 1-1083)": "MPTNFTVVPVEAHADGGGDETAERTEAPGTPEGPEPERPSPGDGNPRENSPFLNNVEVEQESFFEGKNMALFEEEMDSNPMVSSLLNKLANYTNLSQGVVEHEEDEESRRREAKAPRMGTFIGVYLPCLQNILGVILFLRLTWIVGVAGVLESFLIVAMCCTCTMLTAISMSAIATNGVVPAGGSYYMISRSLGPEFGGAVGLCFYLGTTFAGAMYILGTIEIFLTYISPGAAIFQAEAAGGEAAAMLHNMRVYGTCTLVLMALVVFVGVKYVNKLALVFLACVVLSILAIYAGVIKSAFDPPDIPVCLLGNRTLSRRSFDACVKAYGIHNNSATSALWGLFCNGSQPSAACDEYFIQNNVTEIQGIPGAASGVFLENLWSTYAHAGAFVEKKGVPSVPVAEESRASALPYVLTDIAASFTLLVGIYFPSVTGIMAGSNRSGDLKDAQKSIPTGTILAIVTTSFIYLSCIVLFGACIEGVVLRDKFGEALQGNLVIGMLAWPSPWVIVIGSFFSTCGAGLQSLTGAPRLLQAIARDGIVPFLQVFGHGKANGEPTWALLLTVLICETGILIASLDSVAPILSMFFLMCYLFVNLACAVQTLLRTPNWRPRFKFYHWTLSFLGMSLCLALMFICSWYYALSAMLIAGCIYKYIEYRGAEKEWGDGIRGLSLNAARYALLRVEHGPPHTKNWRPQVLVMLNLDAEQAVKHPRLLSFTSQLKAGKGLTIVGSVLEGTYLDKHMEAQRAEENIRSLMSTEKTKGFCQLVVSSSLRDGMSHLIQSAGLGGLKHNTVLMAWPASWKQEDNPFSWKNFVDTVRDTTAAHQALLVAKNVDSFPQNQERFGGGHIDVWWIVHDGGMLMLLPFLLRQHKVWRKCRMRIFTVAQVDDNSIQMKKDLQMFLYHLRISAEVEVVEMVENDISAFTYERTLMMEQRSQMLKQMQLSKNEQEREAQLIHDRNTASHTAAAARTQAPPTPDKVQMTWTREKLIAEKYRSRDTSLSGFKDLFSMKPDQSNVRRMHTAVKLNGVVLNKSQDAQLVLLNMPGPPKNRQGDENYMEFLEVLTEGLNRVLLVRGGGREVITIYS", "assay": "Tl+ assay, HEK-293 cells expressing KCC4", "assay_type": "cell-based", "conditions": "read-out: concentration at which effects on KCC4 were seen (EC50 chart FIG. 1G)", "experimental": "FLIPR TI Flux assay. HEK-293 cells were washed with HBSS, and then incubated with loading buffer containing TI sensitive fluorescent dye (https://www.moleculardevices.com), 20 μM bumetanide 20 μM ouabain and 2.5 mM probenecid for 1 h at room temperature (RT) under control conditions or with drugs in the dark using a FlexStation 3 microplate reader (Molecular Devices) and imaged […] for 30 min. Stimulus buffer was added containing 5 mM K^+/0.5 mM Tl^+ and cells were imaged every 1.5 over a 190 second time course The initial rate Tl^+ uptake (Relative Fluorescence Units (RFU) per second) was determined following addition of the stimulus buffer as outlined previously (Conway et at, 2017, supra) (Lee et at, 2022, supra).\nSeveral studies have shown that the activity and plasma membrane accumulation of KCC2 is potentiated via phosphorylation of S940, a process mediated by the activity of protein kinase C and protein phosphatase 1 (Lee et al., 2011, supra; Lee et al., J Biol Chem 282, 29777-29784 (2007); Moore et al., Proc. Natl. Acad. Sci. U.S.A. 115, 10166-10171 (2018); Moore et al., Trends Neurosci. 40, 555-571 (2017); Silayeva et al., Proc. Natl. Acad. Sci. U.S.A. 112, 3523-3528 (2015)). […] Compared to KCC2, effects on KCC3, KCC4, and NKCC1 were only seen at concentrations more than 35-fold that of KCC2 (>100 μM) (FIG. 1G)."}, "[4]": {"assay": "PK studies, brain and plasma levels by LC-MS/MS", "assay_type": "in vivo, mice", "conditions": "for concentration at 30 min: 25 mg/kg IV bolus, within 30 minutes", "experimental": "PK studies. […] Plasma and brain samples were rapidly frozen on dry ice.\nDrug accumulation in the brain was examined following SC injection (FIG. 4C; 50 mg/kg)."}},
  "note": "Where two headings read alike, the source gives them in different places.",
  "data": [
    {"smiles": "C[C@@H]1CN(c2nc3c(c(Nc4ccc(C5CCCCC5)cc4)n2)COC3)CCO1", "note": "[Compound A, (R)—N-(4-cyclohexylphenyl)-2-(2-methylmorpholino)-5,7-dihydrofuro[3,4-d]pyrimidin-4-amine]", "values": [
      {"measurement": "gross effects on mouse behavior, open field", "setting": "[1]", "value": "no gross effects on mouse behavior"},
      {"measurement": "reduction in Cl−", "setting": "[2]; 15 min, from EGABA by Nernst equation", "value": "2.2 ± 0.6", "unit": "mM"},
      {"measurement": "EGABA at 15 min", "setting": "[2]; from −75±3.1 at 0 min, bumetanide and TTX present", "value": "−85.1±4.2", "unit": "mV"},
      {"measurement": "EC50", "setting": "[3]", "value": "> 100", "unit": "µM"},
      {"measurement": "time of maximal concentration in brain", "setting": "[4]; 50 mg/kg SC", "value": 4, "unit": "h"},
      {"measurement": "brain level 8h after SC injection", "setting": "[4]; 50 mg/kg SC, 8h", "value": "a level that was maintained 8h later"},
      {"measurement": "maximal concentration in brain", "setting": "[4]; 50 mg/kg SC, at 4 hr", "value": "> 600", "unit": "nM"},
      {"measurement": "concentration at 2 hr", "setting": "[4]; mouse, brain, intraperitoneal, 50 mg/kg IP, 2 hr", "value": "2670 ± 210", "unit": "nM"},
      {"measurement": "concentration at 4 hr", "setting": "[4]; mouse, brain, intraperitoneal, 50 mg/kg IP, 4 hr", "value": "4.1 ± 0.13", "unit": "µM"},
      {"measurement": "concentration at 30 min", "setting": "[4]; mouse, brain, read-out: concentration in brain", "value": "7.6 ± 4.4", "unit": "µM"},
      {"measurement": "concentration at 30 min", "setting": "[4]; mouse, plasma, read-out: concentration in plasma", "value": "41.5 ± 11.5", "unit": "µM"}
    ]}
  ]
}
